{
  "source": "paper PMC4256409",
  "about": "“Role of Phenylalanine and Valine^10 Residues in the Antimicrobial Activity and Cytotoxicity of Piscidin-1” (PLoS ONE, 2014)",
  "key": {"[1]": {"tested_on": "Drug-resistant bacterial strains", "details": "average over the 18 drug-resistant bacterial strains of Table 3", "text": "Escherichia coli KCTC 1682, E. coli KCTC 2593, E. coli KCTC 2571, Salmonella typhimurium KCTC 1926, Pseudomonas aeruginosa KCTC 1637, P. aeruginosa KCTC 2004, P. aeruginosa KCTC 2513, Bacillus subtilis KCTC 3068, B. subtilis KCTC 1021, B. subtilis KCTC 1022, Staphylococcus epidermidis KCTC 1917, Staphylococcus aureus KCTC 1621, S. aureus KCTC 1916, and S. aureus KCTC 3881 were purchased from the Korean Collection for Type Cultures, Korea Research Institute of Bioscience & Biotechnology (Taejon, Korea). Methicillin-resistant S. aureus (MRSA) (CCARM 3089, CCARM 3090, CCARM 3108, CCARM 3114, and CCARM 3126), multidrug-resistant E. coli (MDREC) (CCARM 1229 and CCARM 1238), multidrug-resistant S. typhimurium (MDRST) (CCARM 8003, CCARM 8007, and CCARM 8009), multidrug-resistant Acinetobacter baumanii (MDRAB) (CCARM 12005, CCARM 12035, CCARM 12036, CCARM 12037), and multidrug-resistant P. aeruginosa (MDRPA) (CCARM 2002, CCARM 2003, CCARM 2095, and CCARM 2163) were obtained from the Culture Collection of Antibiotic-Resistant Microbes (CCARM) at Seoul Women’s University in Korea. The antimicrobial activities of the peptides against selected organisms, including three Gram-positive, three Gram-negative, and five antibiotic-resistant bacteria, were determined using a broth microdilution assay. Briefly, single colonies of bacteria and fungi were inoculated into Luria-Bertani (LB) medium and cultured overnight at 37°C. An aliquot of the culture was transferred to 10 mL of fresh LB and incubated for an additional 3–5 h at 37°C until it reached the mid-logarithmic phase. Two-fold serial dilutions of the peptides in 1% peptone were prepared. The serial dilutions (100 µL) were added to 100 µL of cells (2×10^6 colony-forming units (CFU)/mL) in 96-well microtiter plates and incubated at 37°C for 16 h. […] MIC values were calculated as the average of triplicate measurements from three independent assays."}, "S. epidermidis KCTC1917": {"tested_on": "S. epidermidis KCTC1917", "assay_type": "cell-based, Staphylococcus epidermidis", "details": "S. epidermidis KCTC1917; broth microdilution, 37°C, 16 h; three independent experiments in triplicate, SD 14.0%"}, "MRSA CCARM3089": {"tested_on": "MRSA CCARM3089", "assay_type": "cell-based, Methicillin-resistant S. aureus", "details": "MRSA CCARM3089; broth microdilution, 37°C, 16 h; three independent experiments in triplicate, SD 14.0%"}, "MDREC CCARM 1229": {"tested_on": "MDREC CCARM 1229", "assay_type": "cell-based, multidrug-resistant E. coli", "details": "broth microdilution, 37°C, 16 h, three independent experiments in triplicate, SD 14.0%"}, "MDRPA CCARM 2002": {"tested_on": "MDRPA CCARM 2002", "assay_type": "cell-based, multidrug-resistant P. aeruginosa", "details": "broth microdilution, 37°C, 16 h, three independent experiments in triplicate, SD 14.0%"}, "B. subtilis KCTC1022": {"tested_on": "B. subtilis KCTC1022", "assay_type": "cell-based, Bacillus subtilis", "details": "B. subtilis KCTC1022; broth microdilution, 37°C, 16 h; three independent experiments in triplicate, SD 14.0%"}, "P. aeruginosa KCTC2004": {"tested_on": "P. aeruginosa KCTC2004", "assay_type": "cell-based, Pseudomonas aeruginosa", "details": "P. aeruginosa KCTC2004; broth microdilution, 37°C, 16 h; three independent experiments in triplicate, SD 14.0%"}, "MRSA CCARM 3114": {"tested_on": "MRSA CCARM 3114", "assay_type": "cell-based, Methicillin-resistant S. aureus", "details": "MRSA CCARM 3114; broth microdilution, 37°C, 16 h; three independent experiments in triplicate, SD 14.0%"}, "B. subtilis KCTC1021": {"tested_on": "B. subtilis KCTC1021", "assay_type": "cell-based, Bacillus subtilis", "details": "B. subtilis KCTC1021; broth microdilution, 37°C, 16 h; three independent experiments in triplicate, SD 14.0%"}, "MDRPA CCARM 2095": {"tested_on": "MDRPA CCARM 2095", "assay_type": "cell-based, multidrug-resistant P. aeruginosa", "details": "broth microdilution, 37°C, 16 h, three independent experiments in triplicate, SD 14.0%"}, "MDRAB CCARM 12035": {"tested_on": "MDRAB CCARM 12035", "assay_type": "cell-based, multidrug-resistant Acinetobacter baumanii", "details": "broth microdilution, 37°C, 16 h, three independent experiments in triplicate, SD 14.0%"}, "S. aureus KCTC1621": {"tested_on": "S. aureus KCTC1621", "assay_type": "cell-based, Staphylococcus aureus", "details": "S. aureus KCTC1621; broth microdilution, 37°C, 16 h; three independent experiments in triplicate, SD 14.0%"}, "MDRPA CCARM 2003": {"tested_on": "MDRPA CCARM 2003", "assay_type": "cell-based, multidrug-resistant P. aeruginosa", "details": "broth microdilution, 37°C, 16 h, three independent experiments in triplicate, SD 14.0%"}, "P. aeruginosa KCTC1637": {"tested_on": "P. aeruginosa KCTC1637", "assay_type": "cell-based, Pseudomonas aeruginosa", "details": "P. aeruginosa KCTC1637; broth microdilution, 37°C, 16 h; three independent experiments in triplicate, SD 14.0%"}, "S. typhimurium KCTC1926": {"tested_on": "S. typhimurium KCTC1926", "assay_type": "cell-based, Salmonella typhimurium", "details": "S. typhimurium KCTC1926; broth microdilution, 37°C, 16 h; three independent experiments in triplicate, SD 14.0%"}, "MDRST CCARM 8009": {"tested_on": "MDRST CCARM 8009", "assay_type": "cell-based, multidrug-resistant S. typhimurium", "details": "broth microdilution, 37°C, 16 h, three independent experiments in triplicate, SD 14.0%"}, "B. subtilis KCTC3068": {"tested_on": "B. subtilis KCTC3068", "assay_type": "cell-based, Bacillus subtilis", "details": "B. subtilis KCTC3068; broth microdilution, 37°C, 16 h; three independent experiments in triplicate, SD 14.0%"}, "P. aeruginosa KCTC2513": {"tested_on": "P. aeruginosa KCTC2513", "assay_type": "cell-based, Pseudomonas aeruginosa", "details": "P. aeruginosa KCTC2513; broth microdilution, 37°C, 16 h; three independent experiments in triplicate, SD 14.0%"}, "S. aureus KCTC3881": {"tested_on": "S. aureus KCTC3881", "assay_type": "cell-based, Staphylococcus aureus", "details": "S. aureus KCTC3881; broth microdilution, 37°C, 16 h; three independent experiments in triplicate, SD 14.0%"}, "MRSA CCARM 3108": {"tested_on": "MRSA CCARM 3108", "assay_type": "cell-based, Methicillin-resistant S. aureus", "details": "MRSA CCARM 3108; broth microdilution, 37°C, 16 h; three independent experiments in triplicate, SD 14.0%"}},
  "note": "Where no end group is shown, it is not given here.",
  "data": [
    {"sequence": "FFHHIFRGIVHVGKTIHRLVTG [Pis-1, reference compound]", "values": [
      {"measurement": "Average MIC", "setting": "[1]", "result": 3.6, "unit": "µM"},
      {"measurement": "MIC", "setting": "S. epidermidis KCTC1917", "result": 2.0, "unit": "µM"},
      {"measurement": "MIC", "setting": "MRSA CCARM3089", "result": 8.0, "unit": "µM"},
      {"measurement": "MIC", "setting": "MDREC CCARM 1229", "result": 4.0, "unit": "µM"},
      {"measurement": "MIC", "setting": "MDRPA CCARM 2002", "result": 2.0, "unit": "µM"},
      {"measurement": "MIC", "setting": "B. subtilis KCTC1022", "result": 1.0, "unit": "µM"},
      {"measurement": "MIC", "setting": "P. aeruginosa KCTC2004", "result": 2.0, "unit": "µM"},
      {"measurement": "MIC", "setting": "MRSA CCARM 3114", "result": 4.0, "unit": "µM"},
      {"measurement": "MIC", "setting": "B. subtilis KCTC1021", "result": 2.0, "unit": "µM"},
      {"measurement": "MIC", "setting": "MDRPA CCARM 2095", "result": 2.0, "unit": "µM"},
      {"measurement": "MIC", "setting": "MDRAB CCARM 12035", "result": 2.0, "unit": "µM"},
      {"measurement": "MIC", "setting": "S. aureus KCTC1621", "result": 1.0, "unit": "µM"},
      {"measurement": "MIC", "setting": "MDRPA CCARM 2003", "result": 2.0, "unit": "µM"},
      {"measurement": "MIC", "setting": "P. aeruginosa KCTC1637", "result": 2.0, "unit": "µM"},
      {"measurement": "MIC", "setting": "S. typhimurium KCTC1926", "result": 2.0, "unit": "µM"},
      {"measurement": "MIC", "setting": "MDRST CCARM 8009", "result": 4.0, "unit": "µM"},
      {"measurement": "MIC", "setting": "B. subtilis KCTC3068", "result": 1.0, "unit": "µM"},
      {"measurement": "MIC", "setting": "P. aeruginosa KCTC2513", "result": 2.0, "unit": "µM"},
      {"measurement": "MIC", "setting": "S. aureus KCTC3881", "result": 2.0, "unit": "µM"},
      {"measurement": "MIC", "setting": "MRSA CCARM 3108", "result": 4.0, "unit": "µM"}
    ]}
  ]
}
